# Like-named read-outs stand apart in the source and are kept apart here.
# What was measured:
# α4β2γ2 GABAA receptor = target: T1, α4β2γ2 GABAA receptor (Homo sapiens, UniProt P18507+P48169); experiment: Radioligand binding (McKernan and Atack), α4β2γ2; conditions: Table 3; αxβ2γ2; means of two determinations; read-out: Binding affinity α4
# T1 construct: expressed in transfected cells; host or cells: HEK cells
# Procedure: (§1) Transfected HEK cells (beta2 gamma2 and desired alpha subtype) were harvested into phosphate-buffered saline, centrifuged at 3,000 g, and stored at −70°C until required. On the day of the assay, pellets were thawed and resuspended in sufficient volume of 50 mM Tris/acetate (pH 7.4 at 4°C) to give a total binding of approximately 1500–2000 dpm. […] Total assay volume was 0.5 mL and assays were carried out in 96-well plates and incubation time started by the addition of 0.1 mL of resuspended cell membranes. Following incubation for 1 hour at 4°C, assays were terminated by filtration through GF/B filters, washed with 10 mL ice cold buffer, dried, and then counted using a liquid scintillation counter. […] We have previously reported the synthesis of the following.
# α6β2γ2 GABAA receptor = target: T2, α6β2γ2 GABAA receptor (Homo sapiens, UniProt P18507+Q16445); experiment: Radioligand binding (McKernan and Atack), α6β2γ2; conditions: Table 3; αxβ2γ2; means of two determinations; read-out: Binding affinity α6
# T2 construct: expressed in transfected cells; host or cells: HEK cells
# Procedure: as §1
# α1β3γ2 GABAA receptor = conditions: baseline 100, cited from earlier work
# α2β3γ2 GABAA receptor = conditions: baseline 100, cited from earlier work
# α3β3γ2 GABAA receptor = conditions: baseline 100, cited from earlier work
# α5β3γ2 GABAA receptor = target: T3, α5β3γ2 GABAA receptor (Homo sapiens, UniProt P18507+P31644); conditions: baseline 100, cited from earlier work
# T3 construct: expressed in transfected cells; host or cells: Xenopus oocytes
# [1] = test system: dopamine neurons in the VTA; conditions: cited from earlier work
# ventral HPC neurons = conditions: 0.1 mg/kg, i.v.; MAM- and saline-treated animals; cited from earlier work
# MAM rats = conditions: cited from earlier work
# [2] = test system: human airway smooth muscle; conditions: 50 μM; p < 0.01; cited from earlier work
# [3] = test system: guinea pig airway smooth muscle; conditions: 1 μM substance P; p < 0.01; cited from earlier work
# [4] = test system: human airway smooth muscle cells; conditions: whole cell patch clamp; cited from earlier work
# [5] = test system: human airway smooth muscle cells; conditions: 10 μM; bradykinin 1 μM; cited from earlier work
# primates = conditions: cited from earlier work
# rodents = conditions: one study in rodents; cited from earlier work
# T3 sequence (P28472 26-473): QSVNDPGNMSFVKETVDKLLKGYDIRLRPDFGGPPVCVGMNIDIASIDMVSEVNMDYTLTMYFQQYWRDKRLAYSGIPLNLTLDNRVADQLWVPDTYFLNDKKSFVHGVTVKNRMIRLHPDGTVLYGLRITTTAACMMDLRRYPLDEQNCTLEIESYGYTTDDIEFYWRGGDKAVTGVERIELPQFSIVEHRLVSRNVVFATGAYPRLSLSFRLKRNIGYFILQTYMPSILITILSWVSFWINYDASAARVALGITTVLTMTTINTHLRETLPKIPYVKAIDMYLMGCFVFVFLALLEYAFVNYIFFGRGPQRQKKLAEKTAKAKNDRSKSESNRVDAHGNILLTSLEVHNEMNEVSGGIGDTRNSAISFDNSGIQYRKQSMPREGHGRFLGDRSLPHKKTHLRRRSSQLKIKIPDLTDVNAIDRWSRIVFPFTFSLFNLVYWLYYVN
# T3 sequence (P31644 32-462): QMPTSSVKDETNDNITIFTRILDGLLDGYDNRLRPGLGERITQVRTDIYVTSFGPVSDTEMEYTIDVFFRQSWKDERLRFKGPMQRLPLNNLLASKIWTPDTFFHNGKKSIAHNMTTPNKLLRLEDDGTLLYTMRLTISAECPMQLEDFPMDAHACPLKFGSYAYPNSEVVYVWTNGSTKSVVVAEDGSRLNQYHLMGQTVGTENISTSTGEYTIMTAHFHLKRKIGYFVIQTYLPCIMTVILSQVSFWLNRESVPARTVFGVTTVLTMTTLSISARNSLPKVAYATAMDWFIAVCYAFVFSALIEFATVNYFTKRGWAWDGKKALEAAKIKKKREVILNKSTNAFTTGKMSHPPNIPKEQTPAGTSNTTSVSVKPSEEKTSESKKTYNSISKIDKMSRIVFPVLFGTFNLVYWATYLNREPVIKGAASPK
# T3 sequence (P18507 40-475): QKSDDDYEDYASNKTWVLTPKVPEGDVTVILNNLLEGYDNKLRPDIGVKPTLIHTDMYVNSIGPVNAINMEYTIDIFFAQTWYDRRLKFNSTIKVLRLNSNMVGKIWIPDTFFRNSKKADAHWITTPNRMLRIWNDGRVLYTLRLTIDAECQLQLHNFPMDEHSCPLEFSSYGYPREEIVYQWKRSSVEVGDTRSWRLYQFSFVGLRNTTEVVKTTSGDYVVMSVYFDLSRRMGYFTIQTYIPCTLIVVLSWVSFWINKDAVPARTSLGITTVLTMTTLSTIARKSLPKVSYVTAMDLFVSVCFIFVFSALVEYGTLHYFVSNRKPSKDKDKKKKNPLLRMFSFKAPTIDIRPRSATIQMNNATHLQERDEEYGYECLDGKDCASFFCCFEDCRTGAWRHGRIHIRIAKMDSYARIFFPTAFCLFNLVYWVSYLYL
# T2 sequence (P18507 40-475): as above
# T2 sequence (Q16445 20-453): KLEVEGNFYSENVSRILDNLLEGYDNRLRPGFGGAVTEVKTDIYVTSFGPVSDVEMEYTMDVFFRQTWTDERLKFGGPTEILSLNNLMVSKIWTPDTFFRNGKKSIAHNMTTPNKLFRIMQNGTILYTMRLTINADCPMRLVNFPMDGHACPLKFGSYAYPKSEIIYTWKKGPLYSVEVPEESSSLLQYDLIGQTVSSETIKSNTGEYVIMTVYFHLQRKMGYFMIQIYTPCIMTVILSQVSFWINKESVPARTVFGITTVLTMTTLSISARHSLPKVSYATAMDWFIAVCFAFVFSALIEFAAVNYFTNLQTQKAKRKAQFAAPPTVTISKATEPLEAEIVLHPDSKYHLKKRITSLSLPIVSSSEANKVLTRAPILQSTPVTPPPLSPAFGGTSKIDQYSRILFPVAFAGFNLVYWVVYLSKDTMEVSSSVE
# T2 sequence (P47870 26-512, further chain): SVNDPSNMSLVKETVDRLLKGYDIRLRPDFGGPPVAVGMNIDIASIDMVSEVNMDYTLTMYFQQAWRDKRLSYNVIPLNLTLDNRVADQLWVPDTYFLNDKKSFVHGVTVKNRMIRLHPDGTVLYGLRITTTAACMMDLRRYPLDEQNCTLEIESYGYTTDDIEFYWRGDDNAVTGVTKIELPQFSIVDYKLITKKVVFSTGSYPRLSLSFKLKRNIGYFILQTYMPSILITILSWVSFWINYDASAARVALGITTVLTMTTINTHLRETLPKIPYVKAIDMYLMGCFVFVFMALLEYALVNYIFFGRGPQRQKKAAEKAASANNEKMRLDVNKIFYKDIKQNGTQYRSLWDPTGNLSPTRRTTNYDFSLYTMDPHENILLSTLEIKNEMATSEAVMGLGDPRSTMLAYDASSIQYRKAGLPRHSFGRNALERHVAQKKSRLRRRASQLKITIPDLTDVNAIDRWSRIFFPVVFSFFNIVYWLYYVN
# T1 sequence (P48169 36-554): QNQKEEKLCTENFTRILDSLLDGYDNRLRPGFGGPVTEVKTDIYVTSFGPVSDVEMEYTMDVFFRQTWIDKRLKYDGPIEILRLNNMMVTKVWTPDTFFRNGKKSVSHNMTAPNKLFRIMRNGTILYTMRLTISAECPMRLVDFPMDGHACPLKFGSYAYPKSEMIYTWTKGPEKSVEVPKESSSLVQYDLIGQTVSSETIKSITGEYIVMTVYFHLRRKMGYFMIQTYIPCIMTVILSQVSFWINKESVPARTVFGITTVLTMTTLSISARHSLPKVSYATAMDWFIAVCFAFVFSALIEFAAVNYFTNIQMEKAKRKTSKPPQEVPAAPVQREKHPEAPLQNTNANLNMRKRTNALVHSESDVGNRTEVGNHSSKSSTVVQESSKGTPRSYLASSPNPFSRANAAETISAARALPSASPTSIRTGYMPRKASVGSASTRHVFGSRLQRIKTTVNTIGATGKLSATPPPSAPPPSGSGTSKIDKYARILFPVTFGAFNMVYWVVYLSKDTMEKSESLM
# T1 sequence (P18507 40-475): as the sequence (P18507 40-475) above
# T1 sequence (P47870 26-512, further chain): as the sequence (P47870 26-512, further chain) above
compound,measurement,setting,value
"C#Cc1ccc2c(c1)C(c1ccccc1F)=N[C@H](C)c1c(C(=O)OCC)ncn1-2 [SH-053-2′F-R-CH3, (2)]",Ki,α4β2γ2 GABAA receptor,> 5 µM
same,Ki,α6β2γ2 GABAA receptor,> 5 µM
same,Efficacy α1 as % of control current,α1β3γ2 GABAA receptor; 100 nM,111 % of control current
same,Efficacy α1 as % of control current,α1β3γ2 GABAA receptor; 1 μM,154 % of control current
same,Efficacy α2 as % of control current,α2β3γ2 GABAA receptor; 100 nM,124 % of control current
same,Efficacy α2 as % of control current,α2β3γ2 GABAA receptor; 1 μM,185 % of control current
same,Efficacy α3 as % of control current,α3β3γ2 GABAA receptor; 100 nM,125 % of control current
same,Efficacy α3 as % of control current,α3β3γ2 GABAA receptor; 1 μM,220 % of control current
same,Efficacy α5 as % of control current,α5β3γ2 GABAA receptor; 100 nM,183 % of control current
same,Efficacy α5 as % of control current,α5β3γ2 GABAA receptor; 1 μM,387 % of control current
same,dopamine neuron activity in control animals,"[1]; 0.1 mg/kg, i.v.",no effect
same,firing rate and burst activity in MAM animals,"[1]; 0.1 mg/kg, i.v.",no effect
same,"number of spontaneously firing dopamine neurons (cells/track), MAM animals","[1]; 0.1 mg/kg, i.v.",normalizes the aberrant increase
same,dopamine activity and locomotor response in MAM rats withdrawn from HAL,[1],unresponsive
same,"number of spontaneously firing dopamine neurons (cells/track), MAM animals",[1]; hippocampal infusion 1 μM/side,normalizes the aberrant increase
same,"percentage of spikes occurring in bursts, MAM and control animals",[1]; hippocampal infusion 1 μM/side,significantly reduced
same,cells/track in repeatedly haloperidol-treated SAL rats,"[1]; rat, in vivo",reversed the haloperidol-induced reduction
same,firing rate of dopamine neurons in repeatedly haloperidol-treated SAL rats,"[1]; rat, in vivo",increase
same,"percentage of spikes occurring in bursts, haloperidol-treated SAL and MAM rats","[1]; rat, in vivo",no impact
same,evoked excitatory response of ventral HPC neurons,ventral HPC neurons,decreases
same,"locomotor response to D-amphetamine (0.5 mg/kg i.p.), MAM rats","MAM rats; 10 mg/kg, i.p.",reduced
same,locomotor response to D-amphetamine in repeatedly haloperidol-treated SAL animals,"MAM rats; rat, in vivo",reduced
same,peak locomotor response in repeatedly haloperidol-treated MAM rats,"MAM rats; rat, in vivo",no effect
same,isoproterenol (10 nM) mediated relaxation of an acetylcholine EC50 contraction,[2],significantly enhances
same,remaining contractile force 30 minutes after a substance P-induced contraction,[3],significantly reduced
same,plasma membrane chloride current,[4],induced a Cl^− current
same,bradykinin-induced increase in intracellular calcium,[5],attenuated
same,anxiolytic effect,primates,very weak anxiolytic effect
same,locomotion,rodents,decrease in locomotion
